pIC50: −log10 of the molar value. Values joined by “and” are separate entries in the source; they are usually repeats but may differ in a detail not shown here. Equal values may be shown once.
molecular target: T1, sAC in 4-4 cells (HEK293 cells that stably overexpress sACt) (Rattus norvegicus, UniProt Q9Z286); assay: cellular adenylyl cyclase activity assay (cAMP accumulation) in sAC overexpressing 4-4 cells; type: cell-based, human; settings: 10 min preincubation, 500 μM IBMX 5 min, 37°C
T1 construct: HEK293 cells that stably overexpress sACt; expressed in transfected cells
T1 sequence (Q9Z286 1-469 limits assumed): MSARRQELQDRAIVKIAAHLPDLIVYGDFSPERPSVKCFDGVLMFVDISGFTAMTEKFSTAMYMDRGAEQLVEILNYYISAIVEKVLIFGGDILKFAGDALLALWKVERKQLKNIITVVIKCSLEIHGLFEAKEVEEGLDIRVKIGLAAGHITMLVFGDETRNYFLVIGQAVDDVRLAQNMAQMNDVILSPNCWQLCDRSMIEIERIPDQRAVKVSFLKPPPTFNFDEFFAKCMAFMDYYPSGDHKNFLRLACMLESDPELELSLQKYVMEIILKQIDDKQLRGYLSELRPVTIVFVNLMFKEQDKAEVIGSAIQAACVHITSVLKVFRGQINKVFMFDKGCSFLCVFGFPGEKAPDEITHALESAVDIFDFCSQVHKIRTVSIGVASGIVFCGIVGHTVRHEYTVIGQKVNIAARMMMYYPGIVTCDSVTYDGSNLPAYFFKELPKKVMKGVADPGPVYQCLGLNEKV
Method: For the assay, 1 × 10^5 4-4 cells were seeded in each well of a 24-well plate and incubated for 24 h in DMEM+10% FBS media at 37°C/5% CO2. One hour before the assay the media was aspirated and replaced with 300 μL fresh media. Cells were preincubated with sAC inhibitor at the indicated concentrations or vehicle (0.7% DMSO) for 10 min at 37°C. Intracellular cAMP accumulation was initiated by addition of 500 μM IBMX (Sigma-Aldrich), and cAMP was allowed to accumulate for 5-min. Intracellular cAMP was quantitated using the Direct cAMP Elisa kit (Enzo Life Sciences) following manufacturer’s instructions. GraphPad Prism (www.graphpad.com, version 9.3.1) was used for curve fitting of the concentration-response data and determination of IC50 values.
In addition to how tightly an inhibitor binds its target, efficacy against an intracellular enzyme target is also determined by factors that are present only in the context of cells, such as membrane permeability, non-specific protein binding and compound stability in media and inside cells.

pIC50 | SMILES
8.64 | COC(=O)[C@H]1COCCN1CCOc1ccccc1Cc1cn(C(F)F)nc1-c1cc(Cl)nc(N)n1 [TDI-11891]
7.80 | Cn1cc(Cc2ccccc2OCCN2CCOCC2)c(-c2cc(Cl)nc(N)n2)n1 [TDI-11155]
7.71 and 7.72 | COC(=O)[C@@H]1COCCN1CCOc1ccccc1Cc1cn(C(F)F)nc1-c1cc(Cl)nc(N)n1 [TDI-11893]
